Entries after “also recorded” stand apart in the source; their conditions may differ. Blank lines part the entries; values can stand above or below the compound they belong to.
What was measured:
[1] = tested on: HPAC (human pancreatic adenocarcinoma cells); test: Proliferation of HPAC cells, Trypan Blue exclusion; type: cell-based; conditions: 48 hours
Method: The malignant human cell line HPAC (human pancreatic adenocarcinoma cells) was used in this study. The cells were seeded at a concentration of 2×10^5/ml in 24 well culture plate (Costar, Cambridge, Mass). […] Varying amounts of the stock solutions were then used to treat the HPAC cells. The final concentration of the farnesol analogs in the culture plate wells ranged from 0 nM (ethanol-treated control) to 500 nM. The plate was then incubated at 37° C. under a 5% CO2-humidified atmosphere for 48 hours. The total viable cells from each well were determined by Trypan Blue (0.4%) exclusion (Gibco, N.Y.) followed by cell counting.

[2] = tested on: H-Ras-GG in H-Ras-GG cells; test: Subcellular fractionation / Western blot of Ras in lovastatin-treated H-Ras-GG cells; type: cell-based; conditions: summary statement
Method: (§1) H-Ras-F (A) or H-Ras-GG (B) cells were treated with 25 μM lovastatin for 24 h after which the indicated FPP or GGPP analogs (resuspended in media) were added directly to the cell media. Following an additional 24 h incubation period, the cells were harvested, lysed and the membranes (M) separated from the cytosol (C). After solubilization of the membrane fraction, Ras protein was immunoprecipitated from both the membrane and cytosolic fractions by the addition of the Y13-259 antibody (OP04 from Oncogene Science). The presence of Ras protein in each fraction was analyzed by Western transfer techniques. Incubation with the primary antibody (pan-ras Ab-2 from Oncogene Science) and an anti-mouse HRP conjugate secondary antibody (Amersham) was employed for detection of the ras protein. Blots were developed using Enhanced Chemiluminescence techniques (Amersham). The technique is described in detail by Scholten, et al., Bioorg. Med. Chem., Vol. 4, pages 1537-1543 (1992).
The selectivity and mechanism of the observed cell growth inhibition was further probed by studying the effects of the 3-vinyl and 3-allyl GGPP analogs on the subcellular distribution of the geranylgeranylated protein variant in H-Ras-GG cells in a manner similar to that described for 3-vFPP and 3-alFPP. The Western blot is shown on FIG. 8. With H-Ras-GG cells, as with H-Ras-F cells, blockage of the mevalonate pathway results in a shift in the subcellular location of the Ras protein from the membrane to the cytosol.

[3] = tested on: NIH 3T3 fibroblasts transfected with a transforming form of c-raf [Raf]; test: Soft agar anchorage-independent growth, Raf cells; type: cell-based; conditions: 2 weeks, mean of two tests
Method: (§2) Presumably, the non-polar alcohols pass through the cell membrane and are then diphosphorylated by an as yet uncharacterized kinase to FPP or GGPP.
(§3) The 3-substituted analogs were evaluated as inhibitors of the growth of ras-transformed cells by comparing their relative degree of activity against an isogenic panel of transformed cell lines, comprised of NIH 3T3 fibroblasts transfected with either H-Ras(61 L) [H-Ras-F], H-Ras(61 L)CVLL [H-Ras-GG], or a transforming form of c-raf [Raf]. The H-Ras-F, H-Ras-GG, and raf transformed NIH3T3 cell lines have been previously described in Cox, et al., Molecular and Cellular Biology, Vol. 12, No. 6, pages 2606-2615 (1992). The cells were grown prior to plating in Dulbecco's modified Eagle medium supplemented with 10% calf serum and 1% antibiotic/antimycotic at 37° C. and 10% CO2. Experiments were carried out in 6-well dishes in a two layer agar system (0.6% bottom layer and 0.3% top layer). Cells were incorporated into the top layer along with varying concentrations of the compound prepared in ethanol. Compound addition occurred only at the time the cells were seeded. Subsequent incubation was at 37° C. with 10% CO2 for 2 weeks. Colonies were stained with 0.5 ml/well of 1 mg/ml p-iodonitrotetrazolium violet (Sigma) for 24 hours prior to quantitation by image analysis.

[4] = tested on: NIH 3T3 fibroblasts transfected with H-Ras(61 L)CVLL [H-Ras-GG]; test: Soft agar anchorage-independent growth, H-Ras-GG cells; type: cell-based; conditions: 2 weeks, read-out: Mean IC50 (±S.E.) H-Ras-GG
Method: as §2, §3

[5] = tested on: NIH 3T3 fibroblasts transfected with H-Ras(61 L) [H-Ras-F]; test: Soft agar anchorage-independent growth, H-Ras-F cells; type: cell-based; conditions: for IC50: soft agar, 2 weeks, read-out: Mean IC50 (±S.E.) H-Ras-F
Method: as §2, §3

[6] = target: recombinant mFTase (affinity purified rat FPTase) (Rattus norvegicus, UniProt Q02293+Q04631); test: FTase scintillation proximity assay; type: biochemical; conditions: for IC50: recombinant mFTase, tritiated FPP 0.12 μM, peptide 0.1 μM; for FTase/GGTase: selectivity mFTase against mGGTase I; for Ki: varying concentrations of tritiated FPP, read-out: K1 FTase
Method: (§4) The method is described in detail in Yokama, et al., J. Biol. Chem., Vol. 272, No. 7, pages 3944-3952 (February 1997). The FTase, tritiated FPP, and the peptide were incubated at 37° C. for 30 minutes in a buffer. After incubation, a stop reagent and streptavidin beads (Amersham) were added. The radioactive product was counted on a Wallac Microbeta 1450 scintillation counter. The kinetic fits were derived from a nonlinear least squares computer fit of the data. The Ki values were determined using the same assay system with varying concentrations of tritiated FPP.

[7] = tested on: H-Ras-F cells; test: Cell morphology of lovastatin-treated H-Ras-F cells; type: cell-based; conditions: 25 μM lovastatin 24 h, then analog 24 h
Method: It has been well established that levels of lovastatin that completely block the mevalonate pathway result in cell cycle blockade, significant cytotoxicity, and a sharp change in cell appearance to a rounded morphology. The effects of lovastatin on the cell morphology of H-Ras-F and H-Ras-GG cells treated with FPP, GGPP, 3-vFPP, 3-vGGPP, 3-alFPP, and 3-alGGPP were photographed and the results are shown on FIG. 9 (H-Ras-F) and 8 (H-Ras-GG), respectively. The H-Ras-F and H-Ras-GG cells were grown in six-well plates to 70-80% confluence. After treating the cells with lovastatin (25 μM) for 24 hour, the indicated FPP or GGPP analogs (re-suspended in media) were added directly to the cell media. Photographs were taken after an additional 24 hour incubation period.

[8] = tested on: H-Ras in H-Ras-F cells; test: Subcellular fractionation / Western blot of Ras in lovastatin-treated H-Ras-F cells; type: cell-based; conditions: for Subcellular location of H-Ras (membrane vs cytosol): H-Ras-F cells, 25 μM lovastatin 24 h, then analog 24 h
Method: as §1, with “Following” for “H-Ras-F (A) or H-Ras-GG (B) cells were treated with 25 μM lovastatin for 24 h after which the indicated FPP or GGPP analogs (resuspended in media) were added directly to the cell media. Following”
The results are shown in FIGS. 6 and 7 which are Western blots of the H-Ras-F and H-Ras-GG experiments, respectively. H-Ras-F cells were treated with lovastatin in order to block the mevalonate pathway, prevent the formation of FPP and GGPP, and thus, inhibit protein prenylation.

[9] = target: T1, recombinant yeast FTase (yFTase) (Saccharomyces cerevisiae, UniProt P22007+P29703); conditions: cited from earlier work
T1 sequence (P22007 1-431): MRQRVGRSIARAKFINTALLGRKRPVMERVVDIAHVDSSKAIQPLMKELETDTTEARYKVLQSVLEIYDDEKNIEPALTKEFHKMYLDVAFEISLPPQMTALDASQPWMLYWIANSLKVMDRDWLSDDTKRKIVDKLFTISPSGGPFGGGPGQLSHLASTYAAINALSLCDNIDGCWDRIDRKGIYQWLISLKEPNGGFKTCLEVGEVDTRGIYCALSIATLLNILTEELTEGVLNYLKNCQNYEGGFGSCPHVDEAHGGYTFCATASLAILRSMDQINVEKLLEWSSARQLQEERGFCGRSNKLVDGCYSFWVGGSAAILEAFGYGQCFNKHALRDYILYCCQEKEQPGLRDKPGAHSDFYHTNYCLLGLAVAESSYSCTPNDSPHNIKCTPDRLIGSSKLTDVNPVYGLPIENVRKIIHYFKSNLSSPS
T1 sequence (P29703 1-316): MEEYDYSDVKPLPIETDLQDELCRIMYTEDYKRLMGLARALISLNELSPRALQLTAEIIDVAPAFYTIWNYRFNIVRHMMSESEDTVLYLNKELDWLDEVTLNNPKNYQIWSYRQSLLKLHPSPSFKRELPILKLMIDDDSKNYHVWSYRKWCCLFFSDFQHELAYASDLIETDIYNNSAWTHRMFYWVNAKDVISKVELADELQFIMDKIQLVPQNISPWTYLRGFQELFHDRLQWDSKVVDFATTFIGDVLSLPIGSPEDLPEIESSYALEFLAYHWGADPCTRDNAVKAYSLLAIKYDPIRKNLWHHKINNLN

[10] = target: recombinant mGGTase I (Homo sapiens, UniProt P49354+P53609); test: GGTase I scintillation proximity assay; type: biochemical; conditions: tritiated GGPP
Method: as §4
GGTase I values were determined in a similar manner using recombinant mGGTase I, tritiated GGPP, and the peptide Biotin-Aha-Thr-Lys-Cys-Val-Ile-Leu-OH.

Compound: 3-Allyl 7,11-dimethyldodeca-2(Z),6(E),10-trien-1-ol [3-ally Farnesol]
- Effect on HPAC cells at 100 nM ([1]; 100 nM): cytostasis
- Viable HPAC cell count at 100 nM ([1]; 100 nM, seeded 2×10^5/ml, control well 2.2×10^6 cells): ~2×10^5 /well
- Effect on HPAC cells at 500 nM ([1]; 500 nM, listed as 3-allylfarnesol): potently cytotoxic; also recorded: complete cytotoxicity

Compound: C=CC/C(=C\CO)CC/C=C(\C)CC/C=C(\C)CCC=C(C)C [3-allyl Geranylgeraniol, 3-Allyl-7,11,15-trimethylhexadeca-2(Z),6(E),10(E),14-tetraen-1-ol]
- Protein geranylgeranylation in cells [2]: inhibits protein geranylgeranylation
- IC50 [3]: > 25000 nM
- IC50 [4]: 4600 nM
- IC50 [5]: > 25000 nM

Compound: CCC(=CCO)CCC=C(C)CCC=C(C)C [3-ethyl Farnesol]
- IC50 [4]: > 25000 nM
- IC50 [5]: > 25000 nM

Compound: CC(C)=CCCC(C)=CCCC(=CCO)c1ccccc1 [3-phenyl Farnesol]
- IC50 [4]: > 25000 nM
- IC50 [5]: > 25000 nM

Compound: CC(C)=CCC/C(C)=C/CC/C(=C/CO)C(C)(C)C [3-tert-butylfarnesol, 3-tert-Butyl-7,11-dimethyldodeca-2(Z),6(E),10-trien-1-ol]
- Cellular activity (transformed cell growth, soft agar), in words ([5]; transformed NIH3T3 cell lines): inactive in cells

- Mode of inhibition of mFTase versus FPP [6]: competitive inhibitors
- IC50 [6]: 189 nM
- FTase/GGTase [6]: >530
- Ki [6]: 31 nM
Compound: C=CC/C(=C\COP(=O)(O)OP(=O)(O)O)CC/C=C(\C)CCC=C(C)C [Compound 3-alFPP, 3-Allyl-7,11-dimethyldodeca-2(Z),6(E),10-triene 1-diphosphate]
- Reversal of rounded morphology of lovastatin-treated H-Ras-F cells [7]: not able to reverse the morphology
- Subcellular location of H-Ras (membrane vs cytosol) [8]: virtually all of the H-Ras being found in the cytosol

- IC50 [6]: 215 nM
- FTase/GGTase [6]: >460
Compound: CC/C(=C\COP(=O)(O)OP(=O)(O)O)CC/C=C(\C)CCC=C(C)C [Compound 3-etFPP]

- IC50 [6]: 299 nM
- FTase/GGTase [6]: >340
Compound: CC(C)=CCC/C(C)=C/CC/C(=C/COP(=O)(O)OP(=O)(O)O)c1ccccc1 [Compound 3-phFPP]

Compound: CC(C)=CCC/C(C)=C/CC/C(=C/COP(=O)(O)OP(=O)(O)O)C(C)(C)C [Compound 3-tbFPP, 3-tert-butyl-2(Z),6(E),10-triene diphosphate]
- Inhibition of yFTase [9]: potent competitive inhibitor
- Substrate activity for yFTase [9]: exceptionally poor substrate
- Mode of inhibition of mFTase versus FPP [6]: competitive inhibitors
- IC50 [6]: 31 nM
- FTase/GGTase [6]: ˜1600
- Ki [6]: 8 nM
- IC50 [10]: ~50000 nM

Compound: C=C/C(=C\COP(=O)(O)OP(=O)(O)O)CC/C=C(\C)CCC=C(C)C [Compound 3-vFPP, 3-Vinyl-7,11-dimethyldodeca-2(Z),6(E),10-triene 1-Diphosphate]
- Substrate activity for yFTase [9]: poor alternative substrate
- Mode of inhibition of mFTase versus FPP [6]: competitive inhibitors
- IC50 [6]: 173 nM
- FTase/GGTase [6]: ˜600
- Ki [6]: 96 nM
- Reversal of rounded morphology of lovastatin-treated H-Ras-F cells [7]: modest ability to do so
- Blocking of prenylation of Ras proteins in H-Ras-F cells [8]: neither 3-vinylfarnesol nor 3-vFPP blocked the prenylation of Ras proteins
- Subcellular location of H-Ras (membrane vs cytosol) [8]: virtually complete localization of the H-Ras protein in the membrane fraction (M)
- IC50 [10]: ~100000 nM

Compound: CC(C)=CCC/C(C)=C/CC/C(C)=C/CC/C(C)=C/COP(=O)(O)OP(=O)(O)O [GGPP, geranylgeranyl diphosphate, reference compound]
- Reversal of rounded morphology of lovastatin-treated H-Ras-F cells [7]: can be reversed

Compound: CC(C)=CCC/C(C)=C/CC/C(C)=C/CC/C(C)=C/CO [geranylgeraniol, reference compound]
- Reversal of rounded morphology of lovastatin-treated H-Ras-F cells [7]: can be reversed

Compound: CC[C@H](C)C(=O)O[C@H]1C[C@@H](C)C=C2C=C[C@H](C)[C@H](CC[C@@H]3C[C@@H](O)CC(=O)O3)[C@H]21 [lovastatin, reference compound]
- Subcellular location of H-Ras (membrane vs cytosol) [8]: shift of the majority of H-Ras from the membrane fraction (M) to the cytosol (C)
